Assay results from publication PMC10080691, “Enzyme-Responsive Double-Locked Photodynamic Molecular Beacon for Targeted Photodynamic Anticancer Therapy” (Journal of the American Chemical Society, 2023).

System: A549 cells
Test: Intracellular ROS generation (H2DCFDA)
Assay type: cell-based, human
Details: 2 μM 1 h + 6 h, light λ > 610 nm, 23 mW cm-2, 14 J cm-2
Procedure: The enzyme-responsive intracellular ROS generation of 1 was then examined in A549 and HeLa cells using 2′,7′-dichlorodihydrofluorescein diacetate (H2DCFDA) as the ROS fluorescent probe. Once H2DCFDA is internalized, it will be deacetylated by the intracellular esterase, followed by oxidation by the intracellular ROS, leading to the formation of the highly fluorescent 2′,7′-dichlorofluorescein (DCF).[79] The cells were first pretreated with SB-3CT (10 μM) and/or CA-074 Me (25 μM) or simply the neat medium for 2 h, followed by incubation with 1 (2 μM) for a further 1 h. As a negative control, the cells were simply incubated with 14 (2 μM) for 1 h. After being rinsed with PBS, the cells were incubated in the medium for a further 6 h. Finally, the cells were incubated with H2DCFDA (10 μM) for 30 min, followed by dark or light (λ > 610 nm, 23 mW cm^–2, 14 J cm^–2) treatment. […] It can be seen that for the MMP-2-positive A549 cells, the fluorescence due to DCF was in the following order: 1 without pretreatment of the cells with the two inhibitors > 1 with pretreatment of the cells with either one of the two inhibitors > 1 with pretreatment of the cells with both inhibitors ≈ 14. […] This trend, which reflects the extent of recovery of ROS generation, was in accord with that of the fluorescence recovery inside the cells (Figure 5c,d). For the MMP-2-negative HeLa cells, the intracellular fluorescence remained very weak even for 1 without pretreatment of the cells with the two inhibitors because of the intrinsically low MMP levels in the cells. […]
or ER-Tracker Green (Thermo Fisher Scientific Inc., E34251) (1 μM for 15 min) in a serum-free medium at 37 °C. […] All the trackers were excited at 488 nm and their fluorescence was monitored at 500−570 nm, while the DSBDP moiety was excited at 638 nm and its fluorescence was monitored at 650−750nm. The images were digitized and analyzed using a Leica Application Suite X software. […]
at 500−550 nm. The images were digitized and analyzed using a Leica Application Suite X […]

SMILES	intracellular ROS generation (DCF fluorescence) (pretreatment with both SB-3CT (10 μM) and CA-074 Me (25 μM) 2 h)	intracellular ROS generation (DCF fluorescence) (no inhibitor pretreatment)
CCN(CC)c1ccc2nc3ccc(/N=N/c4ccc(N(C)CCCNC(=O)OC[C@@H]5[C@@H]6CCc7nnn(CC(=O)NCCCC[C@@H]8NC(=O)CNC(=O)[C@H](CCCCN)NC(=O)[C@H](CCCNC(=N)N)NC(=O)[C@H](C(C)C)NC(=O)CNC(=O)[C@H](CC(C)C)NC(=O)[C@@H]9CCCN9C(=O)[C@H](CCCCN)NC(=O)[C@@H](N)CSCc9cc(COc%10ccc(C%11=C%12C(C)=C(I)C(/C=C/c%13ccc(OCCOCCOCCOC)cc%13)=[N+]%12[B-](F)(F)n%12c(/C=C/c%13ccc(OCCOCCOCCOC)cc%13)c(I)c(C)c%12%11)cc%10)cc(c9)CSC[C@@H](C(N)=O)NC(=O)[C@H](CCCCN)NC(=O)[C@H](CCCCN)NC(=O)CNC(=O)[C@H](CC(C)C)NC(=O)[C@H](Cc9ccccc9)NC(=O)CNC(=O)[C@H](CCCCN)NC(=O)CNC8=O)c7CC[C@@H]65)cc4)cc3[n+](-c3ccccc3)c2c1 [compound 1]	could hardly be observed	–
CCN(CC)c1ccc2nc3ccc(/N=N/c4ccc(N(C)CCCNC(=O)OC[C@@H]5[C@@H]6CCc7nnn(CC(=O)NCCCC[C@@H]8NC(=O)CNC(=O)[C@H](CCCCN)NC(=O)CNC(=O)CNC(=O)CNC(=O)CNC(=O)CNC(=O)[C@H](CCCCN)NC(=O)[C@@H](N)CSCc9cc(COc%10ccc(C%11=C%12C(C)=C(I)C(/C=C/c%13ccc(OCCOCCOCCOC)cc%13)=[N+]%12[B-](F)(F)n%12c(/C=C/c%13ccc(OCCOCCOCCOC)cc%13)c(I)c(C)c%12%11)cc%10)cc(c9)CSC[C@@H](C(N)=O)NC(=O)[C@H](CCCCN)NC(=O)[C@H](CCCCN)NC(=O)CNC(=O)CNC(=O)CNC(=O)CNC(=O)[C@H](CCCCN)NC(=O)CNC8=O)c7CC[C@@H]65)cc4)cc3[n+](-c3ccccc3)c2c1 [compound 14]	–	could hardly be observed
